Patent publication US20250179126A1, “A NOVEL PEPTIDE FROM A PHOTOSYNTHETIC BACERIUM DIRECTLY TARGETS MITOCHONDRIA TO TRIGGER APOPTOSIS IN ADVANCED PROSTATE CANCER CELLS” (priority 2022, published 2025)
Entries after “also recorded” stand apart in the source; their conditions may differ.

Legend:
[1] = system: PC3 prostate cancer cells; test: MTT cell viability assay, PC3 prostate cancer cells; assay type: cell-based, human
Protocol: Cell lines and culture: Human cancer and noncancer (immortalized and nonimmortalized) cell lines were obtained from the American Type Culture Collection [prostate cancer (PC3, DU145 and LNCaP), normal prostate (CRL11611), breast cancer (MCF-7), ovarian cancer (SK-OV3 adenocarcinoma), lung cancer (A549)]. MDD2 breast cancer cells (p53 dominant-negative) were provided courtesy of Dr Andrei V. Gudkov, Roswell Park Cancer Institute. 20 All cell lines were cultured in MEM-E (Invitrogen) supplemented with 10% heat-inactivated fetal bovine serum (Atlanta Biological, Inc.), 100 units/mL penicillin, and 100 μg/mL streptomycin at 37° C. in 5% CO2.

LNCaP cells = test: Annexin-V apoptosis assay by flow cytometry, LNCaP; assay type: cell-based, human; conditions: 48 hr, Ptxl 1 nM, p28 50 μM, aurA/aurB 0.5-50 μM
Protocol: (§1) FIG. 7A-7D: Determination of apoptotic cell death. Prostate cancer cell lines (7A: LNCaP, 7B: DU145 and 7C: PC3) and normal prostate CRL11611 cells (7D) were exposed to the indicated agents for 48 hr and stained using apoptosis assay kits according to the manufacturer's instructions. The samples were analyzed by flow cytometry. Mean±SE (N=3).
(§2) After 48 hr, annexin-V apoptosis assays (Thermo Fisher Scientific) were conducted to detect apoptotic cells. At least 10,000 cells in each case were analyzed by FACS (RRC, UIC).

[2] = system: normal prostate CRL11611 cells; test: Annexin-V apoptosis assay by flow cytometry, normal prostate CRL11611; assay type: cell-based, human; conditions: normal CRL11611, 48 hr; Ptxl 1 nM, p28 50 μM, aurA/aurB 0.5-50 μM
Protocol: as §1, §2

PC3 xenograft tumors = test: PC3 xenograft animal model; assay type: in vivo, athymic mice
Text: FIG. 10A-10D: Inhibition of PC3 xenograft tumor growth. 10A, When the s.c. tumors reached ˜5 mm, athymic mice were randomized into control (PBS) and i.p. treatment groups. Mean±SE (N=5). *P<0.01. […] 10C, At the end of treatment, tumors were dissected and weighed. * P<0.01. 10D, In sections of tumors from the control group, there was a marked increase in Ki-67-positive proliferating cells (stained brown and counterstained with haematoxylin, ×40), and only a few apoptotic cells were observed, as determined by TUNEL and caspase-3 (Casp-3) staining. There was an apparent sharp reduction in Ki-67-positive proliferating cells and a higher number of TUNEL-positive apoptotic cells in the aurB-treated group compared to the control group. Similarly, Casp-3 expression in aurB-treated tumors was increased markedly compared with that in untreated controls.
Xenograft animal model: Human prostate cancer cells (PC3) were injected s.c. into the right flanks of 5- to 6-week-old male athymic mice 78. When tumors reached 5 mm in diameter, animals were randomized into control and treatment groups. […] All animals were weighed twice a week. At necropsy, tumors were dissected and weighed. Statistical comparisons were performed by one-way analysis of variance (ANOVA) (control vs treatment). Tumor samples were fixed overnight in 10% buffered formalin. Fixation was followed by dehydration, clearing and infiltration. Samples were then embedded in paraffin, and 4 μm sections were cut on a microtome. Ki67 (LabVision) staining was performed on the tissue sections using a Vector Vectastain Elite ABC Kit. The TUNEL assay was performed on the sections using a Millipore Sigma ApopTag® Peroxidase In Situ Apoptosis Detection Kit.

[3] = tumor sections, aurB 5 mg/kg daily i.p.

Q: What does the source list for “LVN GGD DVA AAV NTA AQN NAD ALF VPPP (LVNGGDDVAAAVNTAAQNNADALFVPPP) [aurB]”?
A: effect on p53-inactive cancer cells (MTT) ([1]; PC3 (p53-null), 0.1-100 μM, 24 hr): dose-dependent; cytotoxic effect (MTT cell viability) ([1]; PC3 (p53-null, AR−), 24-72 hr, paclitaxel 1 nM): significantly induced dose-dependent cytotoxic effects; also recorded: more sensitive than the normal prostate cell line; inhibition rate ([1]; PC3, 100 μM for 72 hr): ~50%; apoptotic cell death (LNCaP cells): induced significant dose-dependent apoptosis; apoptotic cell death [2]: less extent; tumor weight (PC3 xenograft tumors; at end of treatment, aurB 5 mg/kg daily i.p.): significantly decreased tumor weight; tumor growth inhibition vs PBS control (PC3 xenograft tumors; end of treatment, four weeks i.p., aurB 5 mg/kg daily, Ptxl 10 mg/kg once a week): ~65%; antitumor effect on PC3 tumor growth (PC3 xenograft tumors; four weeks i.p., aurB 5 mg/kg daily, p28 10 mg/kg daily): significantly inhibited; behavioral change, body weight (PC3 xenograft tumors; four weeks of i.p. treatment): without inducing either a behavioral change or a loss in body weight; Ki-67-positive proliferating cells in tumors (PC3 xenograft tumors; [3]): substantially reduce the number of proliferating Ki-67-positive cells; TUNEL-positive apoptotic cells in tumors (PC3 xenograft tumors; [3]): number of apoptotic cells was increased; caspase-3-positive cancer cells in tumors (PC3 xenograft tumors; [3]): substantial increase in caspase-3-positive cancer cells
